According to patent US20220135526A1, “QUATERNARY AMMONIUM SALT COMPOUND, PREPARATION METHOD THEREFOR AND USE THEREOF” (WEST CHINA HOSPITAL, SICHUAN UNIVERSITY, priority 2019, published 2022):

Tests used:
[1] = QX314 with the addition of surfactants (Kohane, PNAS 2010); cited from earlier work
rat's sciatic nerve = test: Local anesthetic effect after injection near the rat sciatic nerve (von Frey stimulation; Postural Extensor Thrust for motor function); assay type: in vivo; conditions: SD rats, 0.5 mL near sciatic nerve, compounds 20 mmol/mL; for Duration of motor block: Postural Extensor Thrust; for Duration of motor block / Duration of sensory block: levobupivacaine 0.75%, lidocaine 2%; for Local anesthesia onset time: levobupivacaine 0.75% (22 mmol/L), lidocaine 2% (74 mmol/L); for Duration of sensory block: von Frey
Method: Dosage: for lidocaine group, lidocaine was formulated with distilled water into a solution at the concentration of 2% (74 mmol/L); for levobupivacaine group, levobupivacaine was formulated with distilled water into a solution at the concentration of 0.75% (22 mmol/L); the compound of the present invention was formulated with distilled water into a solution at the concentration of […].
The injection volume for each rat was 0.5 mL, which was guided by a nerve locator and injected near the rat's sciatic nerve. Using von Frey stimulator, the rats were stimulated the soles of the feet in the injected side, to observe the effect of local anesthesia. Meanwhile, Postural Extensor Thrust (PET) was used to evaluate the motor function of the rat: the rat was lifted vertically and the hindlimb in the injected side pedaled on the platform of the electronic balance. […] When the limb was completely paralyzed, the reading was the limb's own weight, about 20 g. If the measured value was more than half of the difference between the baseline and the limb weight, the motor function was regarded as recovery, and if the value was […], the motor function was regarded as loss.

back skin of SD rat = test: Local anesthetic effect by subcutaneous infiltration (back skin, Von Frey fiber 100 g); assay type: in vivo; conditions: SD rats, 0.5 mL subcutaneous in saline; compounds 6 mmol/L, controls 0.75% (22 mmol/L) and 2% (74 mmol/L)
Method: After the back of SD rat weighing 250-300 g (half female and half male) was shaved and disinfected, a circle with a diameter of about 1.5 cm was drawn on the side of the exposed back, and the circle is divided into 6 equal parts. […] Among the Von Frey fiber yarns, the one with a strength of 100 g was bound to the needle for local skin stimulation. One minute After the drug was injected, the above method was used to stimulate in 6 divisions. […] If back skin contraction was observed, the local anesthetic effect was considered as loss. […] Each compound was tested with 10 rats.

Row | Structure (SMILES) | duration of local anesthesia [1] | Duration of motor block (rat's sciatic nerve) [h] | Local anesthesia onset time (rat's sciatic nerve) [min] | Duration of sensory block (rat's sciatic nerve) [h] | Duration of local anesthesia (median) (back skin of SD rat) [h] | Local anesthesia onset time (median) (back skin of SD rat) [min]
1 | CC[N+](CC)(CC)CC(=O)Nc1c(C)cccc1C [QX314] | more than 8 hours |  |  |  |  | 
2 | CCCCC[N+](CCCCC)(CCCN1CCCCC1C(=O)Nc1c(C)cccc1C)CC(=O)Nc1c(C)cccc1C (stereo not shown) [Example 1 product] |  | 21 | 3 | 32 | 25 | 1
3 | Cc1cccc(C)c1NC(=O)C[N+](CCCO)(CCCCO)CCCCCCN1CCCCC1C(=O)Nc1c(C)cccc1C.[Br-] (stereo not shown) [Example 18 product] |  | 16 | 2 | 38 | 49 | 1
4 | CCCCC[N+](CCCO)(CCCCCCN1CCCCC1C(=O)Nc1c(C)cccc1C)CC(=O)Nc1c(C)cccc1C.[Br-] (stereo not shown) [Example 14 product] |  | 13 | 5 | 41 | 75 | 2
5 | CCCCC[N+](CCCCCCN1CCCCC1C(=O)Nc1c(C)cccc1C)(CCOCC)CC(=O)Nc1c(C)cccc1C (stereo not shown) [Example 20 product] |  | 14 | 5 | 54 | 47 | 3
6 | CCCCCCCCCC[N+](CCCCCCCC)(CCCCCCCCCCCN1CCCCC1C(=O)Nc1c(C)cc(C)cc1C)CC(=O)Nc1c(C)cccc1C (stereo not shown) [Example 24 product] |  | 11 | 4 | 54 | 89 | 2
7 | CCOCC[N+](CCO)(CCCCCCN1CCCC1C(=O)Nc1c(C)cccc1C)CC(=O)Nc1c(C)cccc1C (stereo not shown) [Example 61 product] |  | 11 | 3 |  | 86 | 1
8 | CCCCC[N+](CCCCCCCCN1CCCCCCC1C(=O)Nc1c(C)cccc1C)(CCOCC)CC(=O)Nc1c(C)cccc1C (stereo not shown) [Example 25 product] |  | 12 | 5 | 44 | 82 | 3
9 | CCCCCCCCCC[N+](CCCCCCCCCC)(CCOCCN1CCCCC1C(=O)Nc1c(C)cccc1C)CC(=O)Nc1c(C)cccc1C (stereo not shown) [Example 2 product] |  | 33 | 4 | 44 | 44 | 2
10 | Cc1cccc(C)c1NC(=O)C[N+]1(CCCCN2CCCCC2C(=O)Nc2c(C)cccc2C)CCOCC1C (stereo not shown) [Example 49 product] |  | 20 | 4 | 45 | 62 | 1
11 | Cc1cccc(C)c1NC(=O)C[N+](CCCCCCCS)(CCCCCCCN1CCCCC1C(=O)Nc1c(C)cccc1C)CCCCCC(=O)O (stereo not shown) [Example 45 product] |  | 20 | 3 | 58 | 89 | 1
12 | Cc1cccc(C)c1NC(=O)C[N+]1(CCCCCCN2CCCCC2C(=O)Nc2c(C)cccc2C)CCOC(C)C1 (stereo not shown) [Example 54 product] |  | 15 | 5 | 66 | 69 | 2
13 | CCOCC[N+](CCCCCCN1CCC1C(=O)Nc1c(C)cccc1C)(CCOCC)CC(=O)Nc1c(C)cccc1C (stereo not shown) [Example 67 product] |  | 14 | 1 | 67 | 58 | 1
14 | Cc1cccc(C)c1NC(=O)C[N+](CCO)(CCO)CCCCCCN1CCCCC1C(=O)Nc1c(C)cccc1C (stereo not shown) [Example 17 product] |  | 18 | 5 | 37 | 56 | 2
15 | CCCCC[N+](CCCCS)(CCCCCCCN1CCCCCC1C(=O)Nc1c(C)cccc1C)CC(=O)Nc1c(C)cccc1C (stereo not shown) [Example 69 product] |  | 10 | 1 | 62 | 80 | 1
16 | COCC[N+](CCCCCCN1CCCCC1C(=O)Nc1c(C)cccc1C)(CCOC)CC(=O)Nc1c(C)cccc1C.[Br-] (stereo not shown) [Example 21 product] |  | 13 | 5 | 47 | 64 | 1
17 | CCCCC[N+](CCCCO)(CCCCCCCN1CCCCCC1C(=O)Nc1c(C)cccc1C)CC(=O)Nc1c(C)cccc1C (stereo not shown) [Example 26 product] |  | 16 | 5 | 45 | 92 | 3
18 | CCCCC[N+](CCCCCCN1CCCCC1C(=O)Nc1c(C)cccc1C)(CCCOC)CC(=O)Nc1c(C)cccc1C.[Br-] (stereo not shown) [Example 23 product] |  | 14 | 5 | 54 | 83 | 2
19 | CCCCC[N+](CCCCCCN1CCC1C(=O)Nc1c(C)cccc1C)(CCSCC)CC(=O)Nc1c(C)cccc1C (stereo not shown) [Example 63 product] |  | 14 | 3 | 64 | 79 | 1
20 | CCCCC[N+](CCCCC)(CCCCCCCN1CCCCCC1C(=O)Nc1c(C)cccc1C)CC(=O)Nc1c(C)cccc1C (stereo not shown) [Example 68 product] |  | 21 | 1 | 79 | 73 | 3
21 | Cc1cccc(C)c1NC(=O)C[N+]1(CCCOCCCN2CCCCC2C(=O)Nc2c(C)cccc2C)CC(C)OC(C)C1 (stereo not shown) [Example 32 product] |  | 17 | 2 | 46 | 56 | 2
22 | CCCCCC[N+](CCCCCCN1CCCCC1C(=O)Nc1c(C)cccc1C)(CCOCCC)CC(=O)Nc1c(C)cccc1C (stereo not shown) [Example 37 product] |  | 17 | 1 | 45 | 64 | 1
23 | Cc1cccc(C)c1NC(=O)C[N+]1(CCCCN2CCCCC2C(=O)Nc2c(C)cccc2C)CCOC(C)C1 (stereo not shown) [Example 48 product] |  | 15 | 5 | 57 | 73 | 2
24 | CCCCC[N+](CO)(CCCCCCN1CCCCC1C(=O)Nc1c(C)cccc1C)CC(=O)Nc1c(C)cccc1C.[Br-] (stereo not shown) [Example 15 product] |  | 16 | 5 | 44 | 73 | 4
25 | Cc1cccc(C)c1NC(=O)C[N+](CO)(CCCCO)CCCCCCN1CCCCC1C(=O)Nc1c(C)cccc1C.[Br-] (stereo not shown) [Example 19 product] |  | 10 | 5 | 39 | 62 | 1
26 | Cc1cccc(C)c1NC(=O)C[N+]1(CCCCN2CCCCC2C(=O)Nc2c(C)cccc2C)C(C)COCC1C (stereo not shown) [Example 51 product] |  | 19 | 5 | 44 | 89 | 1
27 | CCCCCCCC[N+](CCCCCC(=O)O)(CCCOCCCN1CCCCC1C(=O)Nc1c(C)cccc1C)CC(=O)Nc1c(C)cccc1C (stereo not shown) [Example 39 product] |  | 19 | 3 | 61 | 89 | 2
